Experiments:
human EP2 receptor = target: T1, human EP2 receptor (Homo sapiens, UniProt P43116); experiment: Binding ability to human EP receptors ([3H]PGE2 displacement), EP2; conditions: membranes expressing human EP2; [3H]PGE2 3 nM; Cheng-Prusoff; read-out: pKi (M) EP2 (converted)
T1 construct: expressed in transfected cells
In short: (§1)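 Membranes from cells stably expressing human EP2, EP3 or EP4 incubated to equilibrium with [3H]PGE2 and compound at 0.1 to 10 000 nM. Non-specific binding defined with 10 uM PGE2; bound label separated by vacuum filtration and quantified by scintillation counting.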

human EP4 receptor = target: T2, human EP4 receptor (Homo sapiens, UniProt P35408); experiment: Binding ability to human EP receptors ([3H]PGE2 displacement), EP4; conditions: membranes expressing human EP4; [3H]PGE2 1 nM; Cheng-Prusoff; read-out: pKi (M) EP4 (converted)
T2 construct: expressed in transfected cells
In short: as §1

human EP3 receptor = target: T3, human EP3 receptor (Homo sapiens, UniProt P43115); experiment: Binding ability to human EP receptors ([3H]PGE2 displacement), EP3; conditions: membranes expressing human EP3; [3H]PGE2 2.5 nM; Cheng-Prusoff; read-out: pKi (M) EP3 (converted)
T3 construct: expressed in transfected cells
T3 sequence (P43115 1-390): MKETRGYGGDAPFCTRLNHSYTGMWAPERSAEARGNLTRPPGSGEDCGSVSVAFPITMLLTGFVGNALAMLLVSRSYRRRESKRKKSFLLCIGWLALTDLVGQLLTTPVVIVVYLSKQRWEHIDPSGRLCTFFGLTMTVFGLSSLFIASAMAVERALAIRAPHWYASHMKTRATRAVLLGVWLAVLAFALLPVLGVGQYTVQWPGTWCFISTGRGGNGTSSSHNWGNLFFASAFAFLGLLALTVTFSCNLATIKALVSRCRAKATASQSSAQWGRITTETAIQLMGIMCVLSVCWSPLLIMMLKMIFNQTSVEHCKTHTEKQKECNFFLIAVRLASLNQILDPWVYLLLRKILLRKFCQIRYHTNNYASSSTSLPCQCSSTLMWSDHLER
In short: as §1

[1] = target: T4, human EP2 prostanoid receptors (Homo sapiens, UniProt P43116); experiment: Agonist activity at recombinant human EP2 prostanoid receptors (cAMP in HEK-293 clones); assay type: cell-based; conditions: for EC50: HEK-293 stably transfected with human EP2, cAMP accumulation, read-out: pEC50 EP2 (converted); for activity (EP2 part): functional classification at EP2
T4 construct: expressed in transfected cells; host or cells: HEK-293

[2] = target: T5, human EP4 prostanoid receptors (Homo sapiens, UniProt P35408); experiment: Antagonist activity at EP4 prostanoid receptors (PGE2-stimulated cAMP in HEK-293 clones); assay type: cell-based; conditions: for Kb: HEK-293 stably transfected with human EP4, 30 min pre-incubation before PGE2, Gaddum-Schild, slope of unity, read-out: pA2 EP4 (converted); for activity (EP4 part): functional classification at EP4, second line of the activity cell
T5 construct: expressed in transfected cells; host or cells: HEK-293
Description: Culture media was Minimal essential media (MEM), supplemented with 10% foetal bovine serum, 100 U/ml penicillin, […] streptomycin, 2.5 μg/ml fungizone, 2mM glutamine. Cells were cultured to confluency (3-4 days) prior to use. Culture media was removed, and confluent cells washed three times in MEM. […] Cells were then stimulated by the addition of 25 μl of PGE2 or agonists prepared in assay buffer. In antagonist studies, cells were pre-incubated with compounds for 30 minutes prior to PGE2-mediated stimulation Plates were incubated for 15 min at 37° C., before termination of the reaction by the addition of 25 μl 1M HCl. The plate was then frozen at -20° C. overnight before determination of cAMP concentration. Stimulated cAMP levels were determined by radioligand displacement binding. In brief, plates were thawed rapidly in a waterbath, and the samples neutralised by the addition of 25 μl 1M NaOH. 30 μl was transferred to Millipore plates pre-coated with 0.5% Polyethylenimine (PEI). Samples were diluted by addition of 90 μl cAMP determination buffer (50 mM Tris, 5 mM EDTA, pH 7.0). […] 15 μl of 2 nM (final concentration) [^3H] cAMP, and 15 μl of 3'5'-cAMP protein kinase (8 μg/well final concentration) prepared in cAMP determination buffer containing 0.1% BSA, were added to each well. Plates were incubated on ice for 2 hours, before bound and free radiolabel were separated by vacuum filtration harvesting using the Millipore vacuum manifold, using ice cold water as the termination buffer. The sealing mat was removed from the Millipore plates, and the filters allowed to dry overnight. 50 μl Microscint 0 (Packard Bioscience) was added to each well, and the plate counted using the Micro-Beta Trilux topcount ^3H program. cAMP accumulation was determined from the standard curve, and values calculated in pmoles cAMP/well. Antagonists affinities (pA2 values) were determined assuming a slope of unity and the […]-Schild equation, where pA2=log [concentration ratio-1]-log[antagonist].

T2 sequence (P35408 whole entry): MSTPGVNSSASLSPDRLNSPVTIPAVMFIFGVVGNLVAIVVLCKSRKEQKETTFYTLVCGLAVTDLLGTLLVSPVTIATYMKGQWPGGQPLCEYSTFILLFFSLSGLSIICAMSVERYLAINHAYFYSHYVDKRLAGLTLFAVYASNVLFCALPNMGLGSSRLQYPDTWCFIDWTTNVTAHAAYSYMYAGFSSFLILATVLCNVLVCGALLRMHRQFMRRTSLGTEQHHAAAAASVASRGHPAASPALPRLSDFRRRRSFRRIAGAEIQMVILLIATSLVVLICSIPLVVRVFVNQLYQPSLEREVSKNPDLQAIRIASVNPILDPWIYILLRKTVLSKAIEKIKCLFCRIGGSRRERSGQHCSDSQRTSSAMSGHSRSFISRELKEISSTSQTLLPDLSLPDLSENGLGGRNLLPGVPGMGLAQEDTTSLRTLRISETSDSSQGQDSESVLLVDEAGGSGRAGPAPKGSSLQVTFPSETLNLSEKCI
T5 sequence (P35408 whole entry): as above
T4 sequence (P43116 whole entry): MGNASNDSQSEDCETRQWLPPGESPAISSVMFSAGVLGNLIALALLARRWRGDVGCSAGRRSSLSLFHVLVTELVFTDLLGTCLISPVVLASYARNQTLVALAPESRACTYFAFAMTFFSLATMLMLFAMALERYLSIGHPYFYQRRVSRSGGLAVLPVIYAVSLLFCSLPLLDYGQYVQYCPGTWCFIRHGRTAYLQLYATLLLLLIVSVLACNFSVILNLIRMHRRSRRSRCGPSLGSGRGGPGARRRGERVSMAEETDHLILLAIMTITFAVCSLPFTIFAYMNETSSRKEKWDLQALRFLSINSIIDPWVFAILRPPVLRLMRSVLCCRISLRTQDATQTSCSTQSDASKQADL
T1 sequence (P43116 whole entry): as above

| SMILES | Ki (human EP2 receptor) | Ki (human EP4 receptor) | Ki (human EP3 receptor) | EC50 [1] | activity (EP2 part) [1] | Kb [2] | activity (EP4 part) [2] |
| --- | --- | --- | --- | --- | --- | --- | --- |
| O=C(O)Cc1ccc(NC(=O)c2ccc(-c3ccccc3)o2)cc1 [Compound 2, {4-[(5-Phenyl-furan-2-carbonyl)-amino]-phenyl}-acetic acid] | < 1e-05 M | < 1e-05 M | > 1e-05 M | < 10000 nM | EP2 agonist/ | < 10000 nM | EP4 antagonist |
| O=C(O)c1ccc(CNC(=O)c2ccc(-c3ccccc3)o2)cc1 [Compound 4, 4-{[(5-Phenyl-furan-2-carbonyl)-amino]-methyl}-benzoic acid] | < 1e-05 M | < 1e-05 M | > 1e-05 M | < 10000 nM | EP2 agonist/ | < 10000 nM | EP4 antagonist |
| O=C(O)Cc1cccc(NC(=O)c2ccc(-c3cc(Cl)cc(Cl)c3)o2)c1 [Compound 26, (3-{[5-(3,5-Dichloro-phenyl)-furan-2-carbonyl]-amino}-phenyl)-acetic acid] | < 1e-07 M | < 1e-07 M | > 1e-05 M | < 100 nM | EP2 agonist/ | < 1000 nM | EP4 antagonist |
| O=C(O)/C=C/c1cccc(NC(=O)c2ccc(-c3ccccc3)o2)c1 [Compound 61, 3-{3-[(5-Phenyl-furan-2-carbonyl)-amino]-phenyl}-acrylic acid] | < 1e-07 M | < 1e-06 M | > 1e-05 M | < 100 nM | EP2 agonist/ | < 1000 nM | EP4 agonist |
| O=C(O)COc1cccc(NC(=O)c2ccc(-c3cccc(Cl)c3)o2)c1 [Compound 66, (3-{[5-(3-Chloro-phenyl)-furan-2-carbonyl]-amino}-phenoxy)-acetic acid] | < 1e-07 M | < 1e-06 M | > 1e-05 M | < 100 nM | EP2 agonist/ | < 1000 nM | EP4 agonist |
| O=C(O)COc1cccc(NC(=O)c2ccc(-c3cc(Cl)cc(Cl)c3)o2)c1 [Compound 68, (3-{[5-(3,5-Dichloro-phenyl)-furan-2-carbonyl]-amino}-phenoxy)-acetic acid] | < 1e-07 M | < 1e-06 M | > 1e-05 M | < 100 nM | EP2 agonist/ | < 1000 nM | EP4 antagonist |
| O=C(O)/C=C/c1cccc(NC(=O)c2ccc(-c3cccc(Cl)c3)o2)c1 [Compound 69, 3-(3-{[5-(3-Chloro-phenyl)-furan-2-carbonyl]-amino}-phenyl)-acrylic acid] | < 1e-07 M | < 1e-06 M | > 1e-05 M | – | EP2 agonist/ | – | EP4 antagonist |
| O=C(O)/C=C/c1cccc(NC(=O)c2ccc(-c3cc(Cl)cc(Cl)c3)o2)c1 [Compound 70, 3-(3-{[5-(3,5-Dichloro-phenyl)-furan-2-carbonyl]-amino}-phenyl)-acrylic acid] | < 1e-07 M | < 1e-06 M | > 1e-05 M | – | EP2 agonist/ | – | EP4 antagonist |
| O=C(O)c1cc2cc(NC(=O)c3ccc(-c4cccc(Cl)c4)o3)ccc2[nH]1 [Compound 72, 5-{[5-(3-Chloro-phenyl)-furan-2-carbonyl]-amino}-1H-indole-2-carboxylic acid] | < 1e-06 M | < 1e-05 M | > 1e-05 M | < 1000 nM | EP2 agonist/ | < 1000 nM | EP4 antagonist |
| O=C(O)COc1cccc(NC(=O)c2ccc(-c3ccccc3)o2)c1 [Compound 160, {3-[(5-Phenyl-furan-2-carbonyl)-amino]-phenoxy}-acetic acid] | < 1e-07 M | > 1e-05 M | > 1e-05 M | < 100 nM | EP2 Agonist | – | – |
| O=C(O)CCc1cccc(NC(=O)c2cccc(-c3cccc(F)c3)n2)c1 [Compound 162, 3-(3-{[6-(3-Fluoro-phenyl)-pyridine-2-carbonyl]-amino}-phenyl)-propionic acid] | < 1e-07 M | > 1e-05 M | > 1e-05 M | < 100 nM | EP2 Agonist | – | – |
| O=C(O)CCc1cccc(NC(=O)c2ccc(-c3cccc(F)c3)o2)c1 [Compound 163, 3-(3-{[5-(3-Fluoro-phenyl)-furan-2-carbonyl]-amino}-phenyl)-propionic acid] | < 1e-07 M | > 1e-05 M | > 1e-05 M | < 100 nM | EP2 Agonist | – | – |
| O=C(O)CCc1cccc(NC(=O)c2cccc(-c3ccccc3)n2)c1 [Compound 164, 3-{3-[(6-Phenyl-pyridine-2-carbonyl)-amino]-phenyl}-propionic acid] | < 1e-06 M | > 1e-05 M | > 1e-05 M | < 100 nM | EP2 Agonist | – | – |
| O=C(O)COc1cccc(NC(=O)c2cc(-c3ccccc3)ccc2F)c1 [Compound 165] | < 1e-07 M | > 1e-05 M | > 1e-05 M | < 100 nM | EP2 Agonist | – | – |
| O=C(O)COc1cccc(NC(=O)c2ccc(-c3cccc(F)c3)o2)c1 [Compound 168, (3-{[5-(3-Fluoro-phenyl)-furan-2-carbonyl]-amino}-phenoxy)-acetic acid] | < 1e-07 M | > 1e-05 M | > 1e-05 M | < 100 nM | EP2 Agonist | – | – |
| O=C(O)COc1cccc(NC(=O)c2cc(-c3cccc(F)c3)ccc2F)c1 [Compound 169, {3-[(4,3′-Difluoro-biphenyl-3-carbonyl)-amino]-phenoxy}-acetic acid] | < 1e-07 M | > 1e-05 M | > 1e-05 M | < 100 nM | EP2 Agonist | – | – |
| O=C(O)COc1cccc(NC(=O)c2cccc(-c3cccc(F)c3)n2)c1 [Compound 170, (3-{[6-(3-Fluoro-phenyl)-pyridine-2-carbonyl]-amino}-phenoxy)-acetic acid] | < 1e-07 M | < 1e-06 M | > 1e-05 M | < 100 nM | EP2 Agonist | – | – |
| O=C(O)COc1cccc(NC(=O)c2cc(-c3ccc(F)cc3)ccc2F)c1 [Compound 171, {3-[(4,4′-Difluoro-biphenyl-3-carbonyl)-amino]-phenoxy}-acetic acid] | < 1e-07 M | > 1e-05 M | > 1e-05 M | < 100 nM | EP2 Agonist | – | – |
| O=C(Nc1cccc(OCc2nnn[nH]2)c1)c1ccc(-c2ccccc2)o1 [Compound 173, 5-Phenyl-furan-2-carboxylic acid [3-(1H-tetrazol-5-ylmethoxy)-phenyl]-amide] | < 1e-06 M | > 1e-05 M | > 1e-05 M | < 100 nM | EP2 Agonist | – | – |
| O=C(Nc1cccc(-c2nnn[nH]2)c1)c1ccc(-c2ccccc2)o1 [Compound 177, 5-Phenyl-furan-2-carboxylic acid [3-(1H-tetrazol-5-yl)-phenyl]-amide] | < 1e-06 M | > 1e-05 M | > 1e-05 M | < 1000 nM | EP2 Agonist | – | – |

— US7326732B2, “EP2 receptor agonists” (Pharmagene Laboratories Limited, priority 2004, dated 2008)
